Bounds are passed on as bounds.

The target in the first assay is T1, ATM (Homo sapiens, UniProt Q13315).
T1 construct: detecting phosphorylation of Chk2 in a human non-small cell lung cancer cell line NCI-H460 (ATCC company); host or cells: NCI-H460 human non-small cell lung cancer cells
T1 sequence (Q13315 whole entry): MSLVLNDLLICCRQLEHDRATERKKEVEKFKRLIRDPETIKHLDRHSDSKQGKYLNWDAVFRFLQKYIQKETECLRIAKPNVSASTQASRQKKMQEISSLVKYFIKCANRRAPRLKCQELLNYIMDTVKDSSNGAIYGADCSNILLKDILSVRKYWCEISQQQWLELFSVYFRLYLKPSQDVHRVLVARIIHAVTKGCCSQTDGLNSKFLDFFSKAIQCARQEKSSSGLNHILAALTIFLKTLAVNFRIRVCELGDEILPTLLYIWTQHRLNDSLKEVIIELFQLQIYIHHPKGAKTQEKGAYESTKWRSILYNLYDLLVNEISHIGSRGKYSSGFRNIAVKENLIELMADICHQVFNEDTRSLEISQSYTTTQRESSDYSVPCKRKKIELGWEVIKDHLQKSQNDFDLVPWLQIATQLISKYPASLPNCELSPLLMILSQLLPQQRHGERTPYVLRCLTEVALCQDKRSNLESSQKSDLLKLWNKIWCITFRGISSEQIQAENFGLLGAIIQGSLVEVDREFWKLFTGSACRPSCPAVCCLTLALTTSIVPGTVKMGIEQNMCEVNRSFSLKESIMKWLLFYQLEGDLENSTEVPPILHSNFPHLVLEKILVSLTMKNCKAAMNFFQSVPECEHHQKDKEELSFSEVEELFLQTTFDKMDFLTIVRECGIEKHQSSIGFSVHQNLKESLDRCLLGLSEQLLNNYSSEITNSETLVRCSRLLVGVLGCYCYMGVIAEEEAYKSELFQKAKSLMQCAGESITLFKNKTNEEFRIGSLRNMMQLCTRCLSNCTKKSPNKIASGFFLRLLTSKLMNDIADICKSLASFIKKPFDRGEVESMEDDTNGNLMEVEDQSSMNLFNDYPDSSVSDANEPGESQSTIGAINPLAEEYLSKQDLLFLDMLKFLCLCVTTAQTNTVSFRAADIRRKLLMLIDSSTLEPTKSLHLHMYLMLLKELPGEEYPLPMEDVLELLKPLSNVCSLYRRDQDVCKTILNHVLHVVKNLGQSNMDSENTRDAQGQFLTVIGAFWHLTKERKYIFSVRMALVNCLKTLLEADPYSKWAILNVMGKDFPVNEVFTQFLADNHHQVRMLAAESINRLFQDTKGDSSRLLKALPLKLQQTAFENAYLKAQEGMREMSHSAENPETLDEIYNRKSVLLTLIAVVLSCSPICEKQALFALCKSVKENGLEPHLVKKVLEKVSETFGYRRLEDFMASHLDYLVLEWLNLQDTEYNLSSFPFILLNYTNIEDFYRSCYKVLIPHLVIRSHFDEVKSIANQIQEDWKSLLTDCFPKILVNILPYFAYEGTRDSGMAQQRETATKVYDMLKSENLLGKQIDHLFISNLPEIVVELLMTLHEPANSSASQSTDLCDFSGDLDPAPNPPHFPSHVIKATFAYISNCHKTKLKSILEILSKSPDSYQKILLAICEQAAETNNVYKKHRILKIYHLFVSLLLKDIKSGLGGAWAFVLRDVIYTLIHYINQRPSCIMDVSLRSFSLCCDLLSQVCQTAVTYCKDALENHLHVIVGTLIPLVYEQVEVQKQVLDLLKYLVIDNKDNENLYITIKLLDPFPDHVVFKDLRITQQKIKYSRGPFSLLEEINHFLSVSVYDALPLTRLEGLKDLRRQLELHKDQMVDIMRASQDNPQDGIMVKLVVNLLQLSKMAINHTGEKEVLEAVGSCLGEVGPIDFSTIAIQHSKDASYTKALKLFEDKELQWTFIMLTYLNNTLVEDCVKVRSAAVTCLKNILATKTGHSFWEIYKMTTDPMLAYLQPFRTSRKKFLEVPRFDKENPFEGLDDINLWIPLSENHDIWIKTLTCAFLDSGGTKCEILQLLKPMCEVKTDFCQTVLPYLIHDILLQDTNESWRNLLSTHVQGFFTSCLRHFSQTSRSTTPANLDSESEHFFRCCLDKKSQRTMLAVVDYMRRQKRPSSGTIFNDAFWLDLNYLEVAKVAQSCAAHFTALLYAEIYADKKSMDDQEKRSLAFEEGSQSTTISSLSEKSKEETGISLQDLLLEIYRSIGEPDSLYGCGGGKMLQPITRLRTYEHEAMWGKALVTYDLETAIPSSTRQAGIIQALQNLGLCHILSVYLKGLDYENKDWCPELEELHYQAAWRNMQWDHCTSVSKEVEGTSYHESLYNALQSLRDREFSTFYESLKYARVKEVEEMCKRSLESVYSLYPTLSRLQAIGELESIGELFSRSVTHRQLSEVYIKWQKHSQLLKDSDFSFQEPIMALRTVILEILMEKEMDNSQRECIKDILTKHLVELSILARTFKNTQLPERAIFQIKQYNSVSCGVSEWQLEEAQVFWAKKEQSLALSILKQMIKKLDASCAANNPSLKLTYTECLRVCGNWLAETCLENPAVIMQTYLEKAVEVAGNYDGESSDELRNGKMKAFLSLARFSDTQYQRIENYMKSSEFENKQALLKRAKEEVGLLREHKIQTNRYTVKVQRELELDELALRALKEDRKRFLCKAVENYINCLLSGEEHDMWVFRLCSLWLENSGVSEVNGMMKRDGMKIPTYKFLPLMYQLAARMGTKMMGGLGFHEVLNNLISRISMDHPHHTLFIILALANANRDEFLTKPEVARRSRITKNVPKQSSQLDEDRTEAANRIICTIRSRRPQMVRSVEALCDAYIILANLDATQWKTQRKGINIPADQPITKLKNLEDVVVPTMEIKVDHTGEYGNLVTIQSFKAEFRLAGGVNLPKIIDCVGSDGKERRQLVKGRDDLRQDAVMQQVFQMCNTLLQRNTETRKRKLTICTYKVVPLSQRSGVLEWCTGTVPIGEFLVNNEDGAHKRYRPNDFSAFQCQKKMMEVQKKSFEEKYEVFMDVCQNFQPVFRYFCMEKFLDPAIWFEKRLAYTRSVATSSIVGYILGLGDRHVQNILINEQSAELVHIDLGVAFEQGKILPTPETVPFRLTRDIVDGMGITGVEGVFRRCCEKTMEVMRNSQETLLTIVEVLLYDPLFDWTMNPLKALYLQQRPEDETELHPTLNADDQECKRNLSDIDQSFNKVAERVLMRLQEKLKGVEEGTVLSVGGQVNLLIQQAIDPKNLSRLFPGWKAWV
The experiment in a line: ATM inhibition test (phosphorylation of Chk2 generated by ionizing radiation, AlphaScreen SureFire). The class given is cell-based. Conditions: ATM inhibitory activity, phosphorylated Chk2 in NCI-H460 cells, ionizing radiation 8Gy, 1 hour after test compound treatment. In outline:
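NCI-H460 cells treated with compound for 1 hour, then irradiated with 8Gy and incubated 1 hour at 37° C. Phospho-Chk2 measured by AlphaScreen SureFire. Inhibition ratio calculated relative to untreated irradiated and non-irradiated wells.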
On the technique in general: Bead proximity is the source of the signal in Alpha formats.
As for `O=c1cc(N2CCOCC2)cc(-c2cccc3c2Sc2ccc(N4CC4CF)cc2S3)[nH]1` (stereo not drawn) [Example 1-40, 6-(7-(2-(fluoromethyl)aziridin-1-yl)thianthren-1-yl)-4-morpholinopyridin-2(1H)-one], the IC50 lay in the range of 100 to 500 nM.

Still in this assay, the particulars now being: phosphorylated Chk2 in NCI-H460 cells, ionizing radiation 8Gy, 1 hour after test compound treatment; read-out: ATM inhibitory activity.
As to `COCCN1CCC(C(Nc2ccc3c(c2)Sc2cccc(-c4cc(N5CCOCC5)cc(=O)[nH]4)c2S3)c2ccc(C)cn2)CC1` (stereo not drawn) [Example 1-56-7, 6-(7-(((1-(2-Methoxyethyl)piperidin-4-yl)(5-methylpyridin-2-yl)methyl)amino)thianthren-1-yl)-4-morpholino pyridin-2(1H)-one], the IC50 was less than 100 nM. Still for that read-out and setting: the figure for `O=c1cc(N2CCOCC2)cc(-c2cccc3c2Oc2ccc(NCc4cccnc4)cc2CC3)[nH]1` [Example 2-51-2, 4-Morpholino-6-(8-((pyridin-3-ylmethyl)amino)-10,11-dihydrodibenz[b,f]oxepin-4-yl)pyridin-2(1H)-one] is 100 to 500 nM; for `CC(Nc1ccc2c(c1)Cc1cccc(-c3cc(N4CCOCC4)cc(=O)[nH]3)c1O2)c1cccnc1` (single isomer, unassigned) [Example 2-36-2, 4-Morpholino-6-(7-((1-(pyridin-3-yl)ethyl)amino)-9H-xanthen-4-yl)pyridin-2(1H)-one] it is 100 to 500 nM; for `CC(CN1CCC1)Nc1ccc2c(c1)Sc1cccc(-c3cc(N4CCOCC4)cc(=O)[nH]3)c1S2` (stereo not drawn) [Example 1-43-1, 6-(7-((1-(azetidin-1-yl)propan-2-yl)amino)thianthren-1-yl)-4-morpholinopyridin-2(1H)-one] it is 100 to 500 nM. On the same count and under the same terms, the figure for `CC(C)(C)OC(=O)N1CCC(Nc2ccc3c(c2)Cc2cccc(-c4cc(N5CCOCC5)cc(=O)[nH]4)c2O3)C(F)C1` (stereo not drawn) [Example 2-14-1, tert-Butyl 3-fluoro-4-((5-(4-morpholino-6-oxo-1,6-dihydropyridin-2-yl)-9H-xanthen-2-yl)amino) piperidine-1-carboxylate] is 100 to 500 nM; for `O=C1CCN1c1cncc(CNc2ccc3c(c2)Cc2cccc(-c4cc(N5CCOCC5)cc(=O)[nH]4)c2O3)c1` [Example 2-2-70, 4-Morpholino-6-(7-(((5-(2-oxoazetidin-1-yl)pyridin-3-yl)methyl)amino)-9H-xanthen-4-yl)pyridin-2(1H)-one] it is 100 to 500 nM. As to `N#Cc1cccc(CNc2cccc3c2Cc2cccc(-c4cc(N5CCOCC5)cc(=O)[nH]4)c2O3)c1` [Example 2-56-4, 3-(((5-(4-Morpholino-6-oxo-1,6-dihydropyridin-2-yl)-9H-xanthen-1-yl)amino)methyl)benzonitrile], the IC50 fell in the range of 100 to 500 nM. On the same count and under the same terms, in the case of `COc1ncccc1CNc1ccc2c(c1)Sc1cccc(-c3cc(N4CCOCC4)cc(=O)[nH]3)c1O2` [Example 4-8-9, 6-(8-(((2-Methoxypyridin-3-yl)methyl)amino)phenoxathiin-4-yl)-4-morpholino pyridin-2 (1H)-one] it was 100 to 500 nM; in that of `COC[C@H](CN(C)C1CCCCC1)Nc1ccc2c(c1)Sc1cccc(-c3cc(N4CCOCC4)cc(=O)[nH]3)c1S2` [Example 1-46-12, (S)-6-(7-((1-(Cyclohexyl (methyl)amino)-3-methoxypropan-2-yl)amino)thianthren-1-yl)-4-morpholino pyridin-2 (1H)-one], 100 to 500 nM. On the same count and under the same terms, in the case of `O=C(CNc1ccc2c(c1)Sc1cccc(-c3cc(N4CCOCC4)cc(=O)[nH]3)c1S2)N1CCCC1` [Example 1-18-1, 4-morpholino-6-(7-((2-oxo-2-(pyrrolidin-1-yl)ethyl)amino)thianthren-1-yl)pyridin-2(1H)-one] it was 100 to 500 nM. Consider `Cc1cncc(C(C)Nc2ccc3c(c2)Cc2cccc(-c4cc(N5CCOCC5)cc(=O)[nH]4)c2O3)n1` (stereo not drawn) [Example 2-14-49, 6-(7-((1-(6-Methylpyrazin-2-yl)ethyl)amino)-9H-xanthen-4-yl)-4-morpholino pyridin-2(1H)-one], for which the IC50 lay within 100 to 500 nM. As for `O=c1cc(N2CCOCC2)cc(-c2cccc3c2Oc2ccc(NCc4cncnc4)cc2C3)[nH]1` [Example 2-3-2, 4-Morpholino-6-(7-((pyrimidin-5-ylmethyl)amino)-9H-xanthen-4-yl) pyridin-2(1H)-one], the IC50 is 100 to 500 nM. The same measure, in the same setting: the figure for `COc1ccc(CNc2ccc3c(c2)Sc2cccc(-c4cc(N5CCOCC5)cc(=O)[nH]4)c2O3)cn1` [Example 4-8-11, 6-(8-(((6-Methoxypyridin-3-yl)methyl)amino)phenoxathiin-4-yl)-4-morpholino pyridin-2(1H)-one] is 100 to 500 nM; for `Cc1ccc(C(Nc2ccc3c(c2)Sc2cccc(-c4cc(N5CCOCC5)cc(=O)[nH]4)c2S3)C2CNCCO2)nc1` (single isomer, unassigned) [Example 1-55-2, 6-(7-(((5-methylpyridin-2-yl)(morpholin-2-yl)methyl)amino)thianthren-1-yl)-4-morpholinopyridin-2(1H)-one] it is less than 100 nM.

With `CC(Nc1ccc2c(c1)Sc1cccc(-c3cc(N4CCOCC4)cc(=O)[nH]3)c1S2)c1nccc(CO)n1` (stereo not drawn) [Example 1-12-86, 6-(7-((1-(4-(Hydroxymethyl)pyrimidin-2-yl)ethyl)amino)thianthren-1-yl)-4-morpholino pyridin-2(1H)-one], the IC50 lay within 100 to 500 nM.

As for `CC(Nc1ccc2c(c1)Sc1cccc(-c3cc(N4CCOCC4)cc(=O)[nH]3)c1S2)c1ncc(CO)cn1` (stereo not drawn) [Example 1-12-92, 6-(7-((1-(5-(Hydroxymethyl)pyrimidin-2-yl)ethyl)amino)thianthren-1-yl)-4-morpholino pyridin-2(1H)-one], the IC50 lay within 100 to 500 nM.

Regarding `Cc1ccc(C(Nc2ccc3c(c2)Sc2cccc(-c4cc(N5CCOCC5)cc(=O)[nH]4)c2S3)C2CCN(C)C2)nc1` (single isomer, unassigned) [Example 10-3-5], the IC50 was less than 100 nM. On the same count and under the same terms, the figure for `CC(Nc1ccc2c(c1)Sc1cccc(-c3cc(N4CCOCC4)cc(=O)[nH]3)c1S2)C(=O)N1CCCC1C` (stereo not drawn) [Example 1-18-6] is 100 to 500 nM; for `O=c1cc(N2CCOCC2)cc(-c2cccc3c2Sc2ccc(NC(CN4CCCCC4)CN4CCOCC4)cc2S3)[nH]1` (stereo not drawn) [Example 1-39, 4-morpholino-6-(7-((1-morpholino-3-(piperidin-1-yl)propan-2-yl)amino)thianthren-1-yl)pyridin-2(1H)-one] it is 100 to 500 nM; for `COc1ncc(C(C)Nc2ccc3c(c2)Sc2cccc(-c4cc(N5CCOCC5)cc(=O)[nH]4)c2S3)cn1` (stereo not drawn) [Example 1-12-76] it is 100 to 500 nM.

As to `CCN1CCC(C(Nc2ccc3c(c2)Sc2cccc(-c4cc(N5CCOCC5)cc(=O)[nH]4)c2S3)c2ccc(C)cn2)CC1` (stereo not drawn) [Example 1-56-1, 6-(7-(((1-ethylpiperidin-4-yl)(5-methylpyridin-2-yl)methyl)amino)thianthren-1-yl)-4-morpholinopyridin-2(1H)-one], the IC50 was less than 100 nM. Same read-out and setting: the figure for `O=c1cc(N2CCOCC2)cc(-c2cccc3c2Sc2ccc(NCc4cncs4)cc2S3)[nH]1` [Example 1-12-54, 4-Morpholino-6-(7-((thiazol-5-ylmethyl)amino)thianthren-1-yl)pyridin-2 (1H)-one] is 100 to 500 nM; for `Cc1cnc(C(CCN(C)C)Nc2ccc3c(c2)Cc2cccc(-c4cc(N5CCOCC5)cc(=O)[nH]4)c2O3)cn1` (single isomer, unassigned) [Example 12-4, 6-(7-((3-(Dimethylamino)-1-(5-methylpyrazin-2-yl)propyl)amino)-9H-xanthen-4-yl)-4-morpholinopyridin-2(1H)-one] it is less than 100 nM.
